Experiment: in vitro
Settings: human, hela cells, % viability
Work on CCc1nc(CN2CCOC(c3ccc(F)cc3)C2)cs1 (stereo not shown) [CBK305090] yielded a viability at 28.5 h, 10 µM of 89.7%. Cc1cc(OC(C)C(=O)Nc2nnc[nH]2)ccc1Cl (stereo not shown) [CBK269731] gave a viability at 28.5 h, 10 µM of 87%. C=CCn1c(-c2sc(NC(=O)CNC(=O)C(C)(C)C)nc2C)n[nH]c1=S [CBK297907] gave a viability at 28.5 h, 10 µM of 91.2%. CCCC(C(=O)O)C(C)CC(=O)Nc1ccccc1Cl (stereo not shown) [CBK286927] gave a viability at 28.5 h, 10 µM of 99.1%. With NC(=O)COc1ccc(C2CC(=O)Nc3c(-c4cccc(F)c4)csc32)cc1 (stereo not shown) [CBK294441] the viability at 28.5 h, 10 µM was 99.6%. CCC(O)Cn1nc(CCSC)nc1-c1cc(=O)n(C)c2ccccc12 (stereo not shown) [CBK306596] gave a viability at 28.5 h, 10 µM of 83.6%. For COc1c(S(=O)(=O)N2CCN(Cc3ccc4c(c3)OCO4)CC2)ccc(Cl)c1Cl [CBK074423], the viability at 28.5 h, 10 µM was 91.8%. With O=C(N/N=C/c1ccc(Cl)cc1Cl)c1nc(-c2ccccc2)cc(-c2ccccc2)n1 [CBK262814] the viability at 28.5 h, 10 µM was 90.1%. Work on CS(=O)(=O)N1C[C@@H]2CCCCN(Cc3cccc(F)c3F)[C@@H]2C1 [CBK285513] yielded a viability at 28.5 h, 10 µM of 95.6%. In the case of COc1ccc(F)cc1-c1cccc(CC2(C(=O)NC3CCCCC3)CCOCC2)c1 [CBK285541], the viability at 28.5 h, 10 µM is reported as 92.8%. In the case of Cc1ccc(C(=O)NCC(=O)O)cc1S(=O)(=O)N1CCOCC1 [CBK264534], the viability at 28.5 h, 10 µM is reported as 90.9%. Cc1ccc(OCc2nnc(SCC(=O)O)n2N)cc1 [CBK266603] gave a viability at 28.5 h, 10 µM of 95.8%. In the case of Cn1c2ccccc2c2ncn(CCS)c(=O)c21 [CBK288412], the viability at 28.5 h, 10 µM is reported as 114%. With COc1ccc(-c2nc3c(c(=S)[nH]2)CCCC3)cc1 [CBK020440] the viability at 28.5 h, 10 µM was 99.2%. Work on COc1ccc(CNC(=S)Nc2cccc(C(F)(F)F)c2)cc1OC [CBK266977] yielded a viability at 28.5 h, 10 µM of 101%. Compound O=C(NCc1ccccc1)c1cccc(NC(=O)c2cc(-c3ccncc3)nc3ccc(Cl)cc23)c1 [CBK267769] has a viability at 28.5 h, 10 µM of 117%. For O=C(NCCOc1cccc(Cl)c1Cl)c1ccccc1-c1ccccc1 [CBK267390], the viability at 28.5 h, 10 µM was 40.6%. Work on COc1ccc(C(C)C)cc1-c1cncc(N[C@@H](CO)C(C)C)n1 [CBK065356] yielded a viability at 28.5 h, 10 µM of 102%. Compound Cc1ccc(S(=O)(=O)NC(C(=O)O)c2ccccc2)cc1 (stereo not shown) [CBK286985] has a viability at 28.5 h, 10 µM of 106%. Compound COc1ccc(CN2C(=S)N(c3ccc(Cl)cc3)[C@H]3[C@@H]2[C@H]2OC(=O)[C@@H]3C[C@H]2O)cc1 [CBK288935] has a viability at 28.5 h, 10 µM of 99.8%. Compound FC(F)c1cc(-c2ccccc2)n2ncnc2n1 [CBK025714] has a viability at 28.5 h, 10 µM of 87.3%. Compound CN1CCN(NC(=O)COc2ccc(-c3ccccc3)cc2)CC1 [CBK268117] has a viability at 28.5 h, 10 µM of 89.8%. With CSCCN1CCC(Oc2cncc(OCC3COc4ccccc4O3)n2)C1 (stereo not shown) [CBK084381] the viability at 28.5 h, 10 µM was 105%. With COCCN(Cc1cnn(C)c1)C(=O)Cc1coc2cc(C)c(Cl)cc12 [CBK307435] the viability at 28.5 h, 10 µM was 108%. With CSCc1nc(CS(=O)(=O)Cc2cccc(C(F)(F)F)c2)no1 [CBK023617] the viability at 28.5 h, 10 µM was 87.8%. Compound CCn1cc(CN2CCC(O)(c3ccc(C)cc3)CC2)cn1 [CBK282735] has a viability at 28.5 h, 10 µM of 85.7%. CCOC(=O)Cc1csc(NC(=O)CSc2nc3cc4c(cc3cc2C)OCO4)n1 [CBK109112] showed a viability at 28.5 h, 10 µM of 105%. O=C(c1ccccc1)N1CCN(c2ccc(-n3cccn3)nn2)CC1 [CBK287662] showed a viability at 28.5 h, 10 µM of 92.2%. O=C(NCCCN1CCCCC1)C1CC(=O)N(Cc2ccco2)C1 (stereo not shown) [CBK305145] showed a viability at 28.5 h, 10 µM of 93.1%. COc1cc(OC)c(NC(=O)CSc2ccccn2)cc1Cl [CBK267303] showed a viability at 28.5 h, 10 µM of 92.5%. For COc1ccc([C@@]23CCCN(C(=O)Nc4ccc(SC(F)(F)F)cc4)C[C@@H]2N(C)CC3)cc1OC [CBK056681T], the viability at 28.5 h, 10 µM was 92.2%. Work on O=C(CSc1nc2ccccc2[nH]1)c1ccccc1 [CBK261298] yielded a viability at 28.5 h, 10 µM of 92.9%. Compound CCCCCCc1ccc(NS(=O)(=O)c2cc3c(NCCN(C)C)nccc3s2)cc1 [CBK038253C] has a viability at 28.5 h, 10 µM of 100%. With CCC(=O)N1CCN(c2ccccc2NC(=O)c2ccc(C#N)cc2F)CC1 [CBK270110] the viability at 28.5 h, 10 µM was 81.8%. Work on Cc1cccc(NC(=S)NCCc2ccc(S(N)(=O)=O)cc2)c1C [CBK264889] yielded a viability at 28.5 h, 10 µM of 86.5%. With CCOC(=O)N1CCC(NC(=O)N(CCN(C)C)Cc2ccccc2)CC1 [CBK155121] the viability at 28.5 h, 10 µM was 109%. Cc1cc(Cc2ccccc2F)cc(C2CCN(C(=O)c3nc4ccc(F)cc4[nH]3)CC2)n1 [CBK285932] gave a viability at 28.5 h, 10 µM of 120%. For O=C(NC1CCc2ccccc21)N1CCN(c2ccccc2)CC1 (stereo not shown) [CBK155208], the viability at 28.5 h, 10 µM was 92.2%. CCCCC1(COC(C)=O)OC(=O)Nc2ccc(Br)cc21 (stereo not shown) [CBK010195] gave a viability at 28.5 h, 10 µM of 91.1%.

Same assay, conditions: human, hela cells, % viability, bulk resorufin, single well
In the case of O=C1NC(=S)N(Cc2ccccc2)C(=O)C1(CCc1ccncc1)CCc1ccncc1 [CBK269137], the viability at 28.5 h, 10 µM is reported as 106%. O=C1NC(=O)C(CCc2ccccn2)(CCc2ccccn2)C(=O)N1c1cccc(C(F)(F)F)c1 [CBK269021] gave a viability at 28.5 h, 10 µM of 99.8%. Work on CN(C(=O)c1ccc(Cl)c(Cl)c1)[C@H]1CCC[C@H]1N1CCCC1 [CBK003411C] yielded a viability at 28.5 h, 10 µM of 90%. In the case of CCOc1cccc(N2C(=O)NC(=O)/C(=C/NCCc3c[nH]c4ccccc34)C2=O)c1 [CBK265541], the viability at 28.5 h, 10 µM is reported as 106%.
